Assay results taken from ChEMBL document CHEMBL4251595, “Green approach for the synthesis of thiophenyl pyrazoles and isoxazoles by adopting 1,3-dipolar cycloaddition methodology and their antimicrobial activity” (2018).
In brackets after ≈: the same amount, converted by molar mass.

Experiments:
Format in all cases: functional
Pseudomonas aeruginosa [1] = test: Antimicrobial activity against Pseudomonas aeruginosa after 24 hrs by broth dilution test
Bacillus subtilis [2] = test: Antimicrobial activity against Bacillus subtilis after 24 hrs by broth dilution test
Penicillium chrysogenum [3] = test: Antifungal activity against Penicillium chrysogenum assessed as zone of inhibition at 75 ug/well after 48 hrs by agar well diffusion method; conditions: read-out: DIZ
Bacillus subtilis [4] = test: Antimicrobial activity against Bacillus subtilis assessed as zone of inhibition at 100 ug/well after 24 hrs by agar well diffusion method; conditions: read-out: DIZ
Penicillium chrysogenum [5] = test: Fungicidal activity against Penicillium chrysogenum incubated for 48 hrs followed by replating on PDA and incubated for 48 hrs by broth dilution test
Pseudomonas aeruginosa [6] = test: Antimicrobial activity against Pseudomonas aeruginosa assessed as zone of inhibition at 75 ug/well after 24 hrs by agar well diffusion method; conditions: read-out: DIZ
Klebsiella pneumoniae [7] = test: Antimicrobial activity against Klebsiella pneumoniae assessed as zone of inhibition at 75 ug/well after 24 hrs by agar well diffusion method; conditions: read-out: DIZ
Klebsiella pneumoniae [8] = test: Antimicrobial activity against Klebsiella pneumoniae after 24 hrs by broth dilution test
Bacillus subtilis [9] = test: Antimicrobial activity against Bacillus subtilis assessed as zone of inhibition at 75 ug/well after 24 hrs by agar well diffusion method; conditions: read-out: DIZ
Bacillus subtilis [10] = test: Antimicrobial activity against Bacillus subtilis assessed as zone of inhibition at 50 ug/well after 24 hrs by agar well diffusion method; conditions: read-out: DIZ
Pseudomonas aeruginosa [11] = test: Bactericidal activity against Pseudomonas aeruginosa incubated for 24 hrs followed by replating on sterile nutrient broth and incubated for 24 hrs by broth dilution test
Penicillium chrysogenum [12] = test: Antifungal activity against Penicillium chrysogenum assessed as zone of inhibition at 100 ug/well after 48 hrs by agar well diffusion method; conditions: read-out: DIZ
Staphylococcus aureus [13] = test: Antimicrobial activity against Staphylococcus aureus after 24 hrs by broth dilution test
Klebsiella pneumoniae [14] = test: Bactericidal activity against Klebsiella pneumoniae incubated for 24 hrs followed by replating on sterile nutrient broth and incubated for 24 hrs by broth dilution test
Aspergillus niger [15] = test: Fungicidal activity against Aspergillus niger incubated for 48 hrs followed by replating on PDA and incubated for 48 hrs by broth dilution test
Staphylococcus aureus [16] = test: Antimicrobial activity against Staphylococcus aureus assessed as zone of inhibition at 75 ug/well after 24 hrs by agar well diffusion method; conditions: read-out: DIZ
Staphylococcus aureus [17] = test: Antimicrobial activity against Staphylococcus aureus assessed as zone of inhibition at 50 ug/well after 24 hrs by agar well diffusion method; conditions: read-out: DIZ
Aspergillus niger [18] = test: Antifungal activity against Aspergillus niger assessed as zone of inhibition at 75 ug/well after 48 hrs by agar well diffusion method; conditions: read-out: DIZ
Aspergillus niger [19] = test: Antifungal activity against Aspergillus niger assessed as zone of inhibition at 100 ug/well after 48 hrs by agar well diffusion method; conditions: read-out: DIZ
Staphylococcus aureus [20] = test: Bactericidal activity against Staphylococcus aureus incubated for 24 hrs followed by replating on sterile nutrient broth and incubated for 24 hrs by broth dilution test
Penicillium chrysogenum [21] = test: Antifungal activity against Penicillium chrysogenum assessed as zone of inhibition at 50 ug/well after 48 hrs by agar well diffusion method; conditions: read-out: DIZ
Klebsiella pneumoniae [22] = test: Antimicrobial activity against Klebsiella pneumoniae assessed as zone of inhibition at 50 ug/well after 24 hrs by agar well diffusion method; conditions: read-out: DIZ
Pseudomonas aeruginosa [23] = test: Antimicrobial activity against Pseudomonas aeruginosa assessed as zone of inhibition at 100 ug/well after 24 hrs by agar well diffusion method; conditions: read-out: DIZ
Penicillium chrysogenum [24] = test: Antifungal activity against Penicillium chrysogenum after 48 hrs by broth dilution test
Klebsiella pneumoniae [25] = test: Antimicrobial activity against Klebsiella pneumoniae assessed as zone of inhibition at 100 ug/well after 24 hrs by agar well diffusion method; conditions: read-out: DIZ
Pseudomonas aeruginosa [26] = test: Antimicrobial activity against Pseudomonas aeruginosa assessed as zone of inhibition at 50 ug/well after 24 hrs by agar well diffusion method; conditions: read-out: DIZ
Aspergillus niger [27] = test: Antifungal activity against Aspergillus niger after 48 hrs by broth dilution test
Bacillus subtilis [28] = test: Bactericidal activity against Bacillus subtilis incubated for 24 hrs followed by replating on sterile nutrient broth and incubated for 24 hrs by broth dilution test
Staphylococcus aureus [29] = test: Antimicrobial activity against Staphylococcus aureus assessed as zone of inhibition at 100 ug/well after 24 hrs by agar well diffusion method; conditions: read-out: DIZ
Aspergillus niger [30] = test: Antifungal activity against Aspergillus niger assessed as zone of inhibition at 50 ug/well after 48 hrs by agar well diffusion method; conditions: read-out: DIZ

SMILES	MIC (Pseudomonas aeruginosa [1]) [µg/mL]	MIC (Bacillus subtilis [2]) [µg/mL]	zone of inhibition at 75 µg/disc (Penicillium chrysogenum [3]) [mm]	zone of inhibition at 100 µg/disc (Bacillus subtilis [4]) [mm]	zone of inhibition at 75 µg/disc (Pseudomonas aeruginosa [6]) [mm]	zone of inhibition at 75 µg/disc (Klebsiella pneumoniae [7]) [mm]	zone of inhibition at 75 µg/disc (Bacillus subtilis [9]) [mm]	zone of inhibition at 50 µg/disc (Bacillus subtilis [10]) [mm]	zone of inhibition at 100 µg/disc (Penicillium chrysogenum [12]) [mm]	zone of inhibition at 75 µg/disc (Staphylococcus aureus [16]) [mm]	zone of inhibition at 50 µg/disc (Staphylococcus aureus [17]) [mm]	zone of inhibition at 75 µg/disc (Aspergillus niger [18]) [mm]	zone of inhibition at 100 µg/disc (Aspergillus niger [19]) [mm]	zone of inhibition at 50 µg/disc (Penicillium chrysogenum [21]) [mm]	zone of inhibition at 50 µg/disc (Klebsiella pneumoniae [22]) [mm]	zone of inhibition at 100 µg/disc (Pseudomonas aeruginosa [23]) [mm]	zone of inhibition at 100 µg/disc (Klebsiella pneumoniae [25]) [mm]	zone of inhibition at 50 µg/disc (Pseudomonas aeruginosa [26]) [mm]	zone of inhibition at 100 µg/disc (Staphylococcus aureus [29]) [mm]	zone of inhibition at 50 µg/disc (Aspergillus niger [30]) [mm]	also measured
O=C(NS(=O)(=O)/C=C/c1ccc([N+](=O)[O-])cc1)c1ccc(Cl)s1	25 (≈ 67.1 µM)	6.25 (≈ 16.8 µM)	26	38	21	29	34	31	28	24	21	29	31	24	27	24	33	19	26	27	MFC (Penicillium chrysogenum [5]): > 200 µg/mL; MIC (Klebsiella pneumoniae [8]): 25 µg/mL (≈ 67.1 µM); MBC (Pseudomonas aeruginosa [11]): 100 µg/mL (≈ 268 µM); MIC (Staphylococcus aureus [13]): 50 µg/mL (≈ 134 µM); MBC (Klebsiella pneumoniae [14]): 100 µg/mL (≈ 268 µM); MFC (Aspergillus niger [15]): 100 µg/mL (≈ 268 µM); MBC (Staphylococcus aureus [20]): 200 µg/mL (≈ 536 µM); MIC (Penicillium chrysogenum [24]): 100 µg/mL (≈ 268 µM); MIC (Aspergillus niger [27]): 25 µg/mL (≈ 67.1 µM); MBC (Bacillus subtilis [28]): 12.5 µg/mL (≈ 33.5 µM)
CC(=O)N1CCN(c2ccc(OCC3COC(Cn4ccnc4)(c4ccc(Cl)cc4Cl)O3)cc2)CC1 (configuration not stated) [KETOCONAZOLE]	–	–	36	–	–	–	–	–	38	–	–	33	36	35	–	–	–	–	–	31	MIC (Penicillium chrysogenum [24]): 12.5 µg/mL (≈ 23.5 µM); MIC (Aspergillus niger [27]): 6.25 µg/mL (≈ 11.8 µM)
O=C(NS(=O)(=O)c1c(-c2ccccc2)nn(-c2ccccc2)c1-c1ccc([N+](=O)[O-])cc1)c1ccc(Cl)s1	12.5 (≈ 22.1 µM)	6.25 (≈ 11.1 µM)	25	41	23	33	38	35	29	28	24	31	34	24	30	26	37	22	29	29	MFC (Penicillium chrysogenum [5]): 200 µg/mL (≈ 354 µM); MIC (Klebsiella pneumoniae [8]): 25 µg/mL (≈ 44.2 µM); MBC (Pseudomonas aeruginosa [11]): 50 µg/mL (≈ 88.5 µM); MIC (Staphylococcus aureus [13]): 50 µg/mL (≈ 88.5 µM); MBC (Klebsiella pneumoniae [14]): 100 µg/mL (≈ 177 µM); MFC (Aspergillus niger [15]): 50 µg/mL (≈ 88.5 µM); MBC (Staphylococcus aureus [20]): 200 µg/mL (≈ 354 µM); MIC (Penicillium chrysogenum [24]): 50 µg/mL (≈ 88.5 µM); MIC (Aspergillus niger [27]): 12.5 µg/mL (≈ 22.1 µM); MBC (Bacillus subtilis [28]): 12.5 µg/mL (≈ 22.1 µM)
O=C(NS(=O)(=O)c1c(-c2ccccc2)noc1-c1ccc([N+](=O)[O-])cc1)c1ccc(Cl)s1	12.5 (≈ 25.5 µM)	6.25 (≈ 12.8 µM)	29	44	25	35	39	37	33	30	27	37	40	27	32	28	38	23	32	35	MFC (Penicillium chrysogenum [5]): 200 µg/mL (≈ 408 µM); MIC (Klebsiella pneumoniae [8]): 25 µg/mL (≈ 51 µM); MBC (Pseudomonas aeruginosa [11]): 50 µg/mL (≈ 102 µM); MIC (Staphylococcus aureus [13]): 50 µg/mL (≈ 102 µM); MBC (Klebsiella pneumoniae [14]): 100 µg/mL (≈ 204 µM); MFC (Aspergillus niger [15]): 12.5 µg/mL (≈ 25.5 µM); MBC (Staphylococcus aureus [20]): 200 µg/mL (≈ 408 µM); MIC (Penicillium chrysogenum [24]): 50 µg/mL (≈ 102 µM); MIC (Aspergillus niger [27]): 6.25 µg/mL (≈ 12.8 µM); MBC (Bacillus subtilis [28]): 12.5 µg/mL (≈ 25.5 µM)
O=C(NS(=O)(=O)c1c(-c2ccccc2)nn(-c2ccccc2)c1-c1ccc([N+](=O)[O-])cc1)c1cccs1	25 (≈ 47.1 µM)	6.25 (≈ 11.8 µM)	24	40	21	32	36	33	27	26	23	28	31	22	29	24	34	20	27	25	MFC (Penicillium chrysogenum [5]): > 200 µg/mL; MIC (Klebsiella pneumoniae [8]): 25 µg/mL (≈ 47.1 µM); MBC (Pseudomonas aeruginosa [11]): 100 µg/mL (≈ 188 µM); MIC (Staphylococcus aureus [13]): 50 µg/mL (≈ 94.2 µM); MBC (Klebsiella pneumoniae [14]): 100 µg/mL (≈ 188 µM); MFC (Aspergillus niger [15]): 100 µg/mL (≈ 188 µM); MBC (Staphylococcus aureus [20]): 200 µg/mL (≈ 377 µM); MIC (Penicillium chrysogenum [24]): 100 µg/mL (≈ 188 µM); MIC (Aspergillus niger [27]): 25 µg/mL (≈ 47.1 µM); MBC (Bacillus subtilis [28]): 12.5 µg/mL (≈ 23.6 µM)
O=C(N[C@H](CO)[C@H](O)c1ccc([N+](=O)[O-])cc1)C(Cl)Cl [CHLORAMPHENICOL]	6.25 (≈ 19.3 µM)	6.25 (≈ 19.3 µM)	–	38	27	40	34	32	–	33	30	–	–	–	38	30	42	25	35	–	MIC (Klebsiella pneumoniae [8]): 6.25 µg/mL (≈ 19.3 µM); MIC (Staphylococcus aureus [13]): 12.5 µg/mL (≈ 38.7 µM)
O=C(NS(=O)(=O)c1c(-c2ccccc2)nn(-c2ccccc2)c1-c1ccccc1)c1ccc(Cl)s1	–	–	15	32	16	25	28	25	17	21	19	21	25	13	23	19	27	14	24	18	–
